Data as given in PMC12567082, “Silver(I) Complexes Bearing S-Alkyl Thiosalicylic Acid Derivatives: DNA/BSA Binding and Antitumor Activity In Vitro and In Vivo” (Pharmaceutics, 2025).

What was measured:
[1] = molecular target: T1, BSA (Bos taurus, UniProt P02769); assay: BSA tryptophan fluorescence quenching; assay type: binding, bovine
T1 construct: purchased Sigma-Aldrich
Method: The protein binding study was carried out using tryptophan fluorescence quenching experiments with BSA. […] Fluorescence emission spectra were recorded between 300 and 500 nm, with excitation at 295 nm.
The quenching constant Ksv was determined based on the Stern–Volmer relationship, as described by Equation (3):I0/I = 1 + kqτ0[Q] = 1 + Ksv[Q](3)
In this equation, I0 and I refer to the fluorescence intensities of BSA measured without and with the quencher (complex), τ0 represents the average fluorescence lifetime of free BSA (∼10^−8 s), and [Q] indicates the quencher concentration.
Parameters such as association binding constant (K) and the number of binding sites per albumin (n) were obtained from Scatchard Equation (4):(ΔI/I0)/[Q] = nK − KΔI/I0(4)
To minimize inner filter, both intensities of fluorescence originating from excitation and emission light absorption and re-absorption were corrected by employing Equation (5); Icor and Iobs are the corrected and observed fluorescence intensities, respectively, and Aex and Aem represent the absorbance of the metal complex at the excitation and emission wavelengths, respectively.Icor = Iobs · […]^(Aex + Aem)/2(5)

[2] = test system: human fibroblast cell lines (MRC-5); assay: MTT assay MRC-5; assay type: cell-based
Method: Mouse breast cancer (4T1), human breast cancer (MDA-MB-468), mouse colon cancer (CT26), human colon cancer (HCT-116), mouse lung cancer (LLC1), human lung cancer (A549), mouse mesenchymal stem cells (mMSC), and human fibroblast cell lines (MRC-5) were used in this study and were consistently cultured in complete Dulbecco’s Modified Eagle Medium (DMEM) (Sigma-Aldrich, St. Louis, MO, USA) in incubator (5% CO2) under standard conditions. Complete DMEM was Dulbecco’s Modified Eagle Medium supplemented with 10% fetal bovine serum (FBS), 1 mmol/L penicillin–streptomycin, 1 mmol/L mixed nonessential amino acids, and 2 mmol/L L-glutamine (Sigma-Aldrich, St. Louis, MO, USA). All cancer cell lines and MRC-5 cell line were obtained from American Type Culture Collection (ATCC, Manassas, VA, USA), but mMSC was manufactured by Gibco (Middlesex County, MA, USA).
In 96-well microplates, we seeded cancer and non-cancer cells, more exactly 5 × 10^3 cells per well in 100 μL of complete DMEM (Sigma-Aldrich, St. Louis, MO, USA). […] Tested concentration range for all metal-based substances was 3.9–500 μM. After incubation with MTT solution (5 mg/mL; pH 7.2) for 4 h, optical density was determined using Zenyth 3100 microplate multimode detector (Salzburg, Austria). All experiments were performed three times, each in triplicate, and the IC50 values as well as selectivity indexes (IC50 for mMSC or MRC-5/IC50 for mouse or human cancer cells) were calculated.

[3] = test system: 4T1 mammary tumors; assay: Breast cancer development in vivo (orthotopic 4T1); parameters: species or system BALB/C female mice; details: five single doses every third day, after day 18
Method: (§1) Ethics Committee of the Faculty of Medical Sciences of the University of Kragujevac, Serbia, approved all experiments (01-5301/11). ARRIVE guidelines and EU Directive 2010/63/EU for animal experiments were followed. Experimental animals, BALB/C female mice (8–10 weeks old), were housed under standard conditions (temperature-controlled environment, a 12 h light–dark cycle, fed ad libitum, and observed daily) throughout whole duration of experiment. Animals were inoculated with 4T1 cells (3 × 10^4) into the fourth mammary fat pad as previously described. Animals were randomly assigned to experimental or control groups, and after palpable tumors were detected, the pharmacological treatments were started. Female BALB/C mice intraperitoneally received either C3 (3 mg/kg), C3 (6 mg/kg), CDDP (6 mg/kg), or vehicle in distilled water with 0.05% DMSO (Sigma-Aldrich, St. Louis, MO, USA) (untreated group) in five single doses every third day (8 animals per group). Using electronic calipers (Moore and Wright, Sheffield, UK), the sizes of primary 4T1 mammary tumors were morphometrically evaluated. On the 30th day of experiment, animals were sacrificed, blood was collected (for determination of serum levels of ALT, AST, urea, and creatinine), and tissue sections (liver and kidney) were stained with H&E for further analysis. Liver or kidney sections were analyzed by two observers, and the injury levels were determined as previously reported.

[4] = test system: BALB/C female mice; assay: In vivo toxicity (serum biochemistry, liver and kidney histology); details: day 30
Method: as §1

[5] = test system: 4T1 cells; assay: Mitochondrial membrane potential and ROS levels; assay type: cell-based, mouse; details: 0.5 µM
Method: After 24 h of C3 treatment, 4T1 cells were stained with appropriate dyes, followed by flow cytometry analysis using FACS Calibur Flow Cytometer (BD Biosciences, San Jose, CA, USA). Mitochondrial membrane potential stained by Rhodamine-123 (Sigma-Aldrich, St. Louis, MO, USA), TMRE (Abcam, Cambridge, UK), and cellular ROS levels were stained by DC-FHDA (Sigma-Aldrich, St. Louis, MO, USA).

T1 sequence (P02769 25-607): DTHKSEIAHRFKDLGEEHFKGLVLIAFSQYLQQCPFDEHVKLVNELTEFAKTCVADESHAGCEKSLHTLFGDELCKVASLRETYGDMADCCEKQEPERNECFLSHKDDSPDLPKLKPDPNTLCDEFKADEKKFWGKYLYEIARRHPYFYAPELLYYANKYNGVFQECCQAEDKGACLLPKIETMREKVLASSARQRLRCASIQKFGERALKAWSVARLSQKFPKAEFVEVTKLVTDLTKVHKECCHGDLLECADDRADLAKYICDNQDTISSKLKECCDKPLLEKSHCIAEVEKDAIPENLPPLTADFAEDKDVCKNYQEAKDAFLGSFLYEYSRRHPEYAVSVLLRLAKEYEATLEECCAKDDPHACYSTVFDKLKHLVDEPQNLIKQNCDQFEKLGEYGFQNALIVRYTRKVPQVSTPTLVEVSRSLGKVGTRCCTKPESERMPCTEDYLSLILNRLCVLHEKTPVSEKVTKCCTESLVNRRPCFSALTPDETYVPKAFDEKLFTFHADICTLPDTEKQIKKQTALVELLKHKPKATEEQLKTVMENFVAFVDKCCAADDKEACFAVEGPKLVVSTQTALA

## CCCSc1ccccc1C(=O)[O][Ag].CCCSc1ccccc1C(=O)[O][Ag] [C3, [Ag2(S-propyl-thiosal)2]]
[1]; BSA 2 µM
  kq (quenching rate constant): (9.6 ± 0.1) × 10^12 M^−1 s^−1
[1]; BSA 2 µM, λex 295 nm
  Ksv (Stern–Volmer constant): (9.6 ± 0.1) × 10^4 M^−1
[1]; Scatchard equation
  K (binding constant): (1.1 ± 0.1) × 10^5 M^−1
  n (number of binding sites): 1.1
[2]; MRC-5, 24 h
  IC50: 38.1 ± 1.13 µM
[2]; MRC-5, 48 h
  IC50: 43.3 ± 1.1 µM
[3]; 3 mg/kg i.p.
  tumor growth compared to the untreated group: significantly slower
[3]; 6 mg/kg i.p.
  tumor growth compared to the untreated group: significantly slower
[4]; C3 3 and 6 mg/kg vs CDDP 6 mg/kg
  kidney injury scores compared to CDDP-treated animals: significantly lower
[4]; C3 3 and 6 mg/kg, H&E
  liver injury histological score (Knodel score) vs untreated animals: did not reveal a significant difference
[5]
  TMRE fluorescence (mitochondrial membrane potential): significant decrease
[5]; 24 h incubation
  level of intracellular ROS: increased
